# Data reported in US20090143279A1 (priority 2007, published 2009).
# Read-outs that look alike come from different tables or passages of the source.
# Experiments:
# [1] = tested on: mitochondrial membrane potential; assay type: cell-based, mouse; conditions: for ΔΨm (composite Z-score): normalized score vs mock-treated (DMSO) wells
# reactive oxygen species = assay type: cell-based, mouse; conditions: for ROS (composite Z-score): normalized score vs mock-treated (DMSO) wells
# OXPHOS gene expression = assay type: cell-based, mouse; conditions: for GE-HTS (composite Z-score): normalized score vs mock-treated (DMSO) wells
# nuOXPHOS transcripts = assay type: cell-based, mouse; conditions: for nucOX (composite Z-score): normalized score vs mock-treated (DMSO) wells
# mtOXPHOS transcripts = assay type: cell-based, mouse; conditions: for mitoOX (composite Z-score): normalized score vs mock-treated (DMSO) wells
# cytochrome c = assay type: cell-based, mouse; conditions: for cyt c (composite Z-score): normalized score vs mock-treated (DMSO) wells
# cytochrome c, sequence (P62897 whole entry): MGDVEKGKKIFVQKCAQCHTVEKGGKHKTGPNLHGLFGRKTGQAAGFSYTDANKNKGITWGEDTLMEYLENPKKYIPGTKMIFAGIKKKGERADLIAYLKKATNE
# C2C12 myotubes = conditions: for Viability (composite Z-score): normalized score vs mock-treated (DMSO) wells
# [2] = tested on: cellular dehydrogenase activity; conditions: for MTT (composite Z-score): normalized score vs mock-treated (DMSO) wells
# [3] = normalized composite Z-score vs mock-treated (DMSO) wells, Conc 20 μM
# [4] = composite Z-score vs DMSO wells, Conc 20 μM
# [5] = composite Z-score vs mock-treated (DMSO) wells, Conc 20 μM
# [6] = Table 4, C2C12 myotubes, 48 h, composite Z-score
# [7] = Table 7, C2C12 myotubes, 48 h, composite Z-score
# [8] = composite Z-score vs DMSO, Conc 20 μM
# [9] = 20 μM, composite Z-score vs DMSO
# [10] = composite Z-score vs DMSO, Conc 10.62 μM
compound,measurement,setting,value
COc1ccc2c(c1)O[C@H]1c3ccc(OC)cc3OC[C@@H]21 [homopterocarpin],ΔΨm,[1]; [3],−0.306
same,ROS,reactive oxygen species; [3],−0.616
same,GE-HTS,OXPHOS gene expression; [3],−0.918
same,nucOX,nuOXPHOS transcripts; [3],−0.713
same,mitoOX,mtOXPHOS transcripts; [3],−1.126
same,cyt c,cytochrome c; [3],0.575
same,Viability,C2C12 myotubes; [3],0.549
same,MTT,[2]; [3],−0.578
"C=C1c2cccc(O)c2C(=O)C2=C(O)[C@]3(O)C(=O)C(C(N)=O)=C(O)[C@@H](N(C)C)[C@@H]3[C@@H](O)[C@H]12 [methacycline, reference compound]",ΔΨm,[1]; [4],−1.616
same,ROS,reactive oxygen species; [4],1.083
same,GE-HTS,OXPHOS gene expression; [4],−0.340
same,nucOX,nuOXPHOS transcripts; [4],−0.600
same,mitoOX,mtOXPHOS transcripts; [4],0.258
same,cyt c,cytochrome c,0.020
same,cyt c,cytochrome c; [4],0.723
same,Viability,C2C12 myotubes; [4],−1.645
same,MTT,[2]; [4],−1.744
"COc1ccc([C@H]2Oc3c(I)c(OC)cc(OC)c3C[C@@H]2O)cc1OC [8-iodocatechin tetramethyl ether, reference compound]",ΔΨm,"[1]; Table 4, C2C12 myotubes, 48 h, JC-1, composite Z-score",0.146
same,ΔΨm,[1]; [5],0.146
same,ROS,reactive oxygen species; [6],−0.448
same,ROS,reactive oxygen species; [5],−0.448
same,GE-HTS,OXPHOS gene expression; [5],−1.194
same,nucOX,nuOXPHOS transcripts; [5],−0.985
same,mitoOX,mtOXPHOS transcripts; [5],−1.411
same,cyt c,cytochrome c; [5],0.237
same,Viability,C2C12 myotubes; [6],0.377
same,Viability,C2C12 myotubes; [5],0.377
same,MTT,[2]; [6],−1.359
same,MTT,[2]; [5],−1.359
C=C[C@@](C)(O)CC[C@H]1C(=C)C[C@H](O)[C@H]2C(C)(C)CCC[C@]12C [larixol],ΔΨm (composite Z-score),[1]; Conc 20 μM,−0.141
same,ROS (composite Z-score),reactive oxygen species; Conc 20 μM,1.068
same,GE-HTS (composite Z-score),OXPHOS gene expression; Conc 20 μM,−0.507
same,nucOX (composite Z-score),nuOXPHOS transcripts; Conc 20 μM,−0.466
same,mitoOX (composite Z-score),mtOXPHOS transcripts; Conc 20 μM,−0.552
same,cyt c (composite Z-score),cytochrome c; Conc 20 μM,0.944
same,Viability (composite Z-score),C2C12 myotubes; Conc 20 μM,0.085
same,MTT (composite Z-score),[2]; Conc 20 μM,−0.221
"COc1cc2c(cc1OC)[C@@H]1C(=O)c3ccc4oc(C(C)C)cc4c3O[C@@H]1CO2 [isorotenone, reference compound]",ΔΨm,[1]; [3],−1.329
same,ROS,reactive oxygen species; [3],−0.782
same,GE-HTS,OXPHOS gene expression; [3],−3.751
same,nucOXPHOS Z,nuOXPHOS transcripts; [7],−3.02
same,nucOX,nuOXPHOS transcripts; [3],−3.017
same,mito-OXPHOS Z,mtOXPHOS transcripts; [7],−4.57
same,mitoOX,mtOXPHOS transcripts; [3],−4.571
same,cyt c,cytochrome c; [3],−3.397
same,Viability,C2C12 myotubes; [3],−1.954
same,MTT,[2]; [3],−4.373
COc1c2c(cc3c1OCO3)CC[N+](C)=C2 [cotarnine],ΔΨm,[1]; [5],−1.103
same,ROS,reactive oxygen species; [5],−0.007
same,GE-HTS,OXPHOS gene expression; [5],0.049
same,nucOX,nuOXPHOS transcripts; [5],0.159
same,mitoOX,mtOXPHOS transcripts; [5],−0.151
same,cyt c,cytochrome c; [5],0.068
same,Viability,C2C12 myotubes; [5],−0.398
same,MTT,[2]; [5],−0.587
estrone hemisuccinate,ΔΨm,[1]; [4],−0.573
same,ROS,reactive oxygen species; [4],0.834
same,GE-HTS,OXPHOS gene expression; [4],0.261
same,nucOX,nuOXPHOS transcripts; [4],0.370
same,mitoOX,mtOXPHOS transcripts; [4],−0.003
same,cyt c,cytochrome c; [4],0.250
same,Viability,C2C12 myotubes; [4],−0.076
same,MTT,[2]; [4],−0.686
COc1cc([C@@H]2c3cc4c(cc3[C@@H](O[C@@H]3O[C@@H]5CO[C@@H](C)O[C@H]5[C@H](O)[C@H]3O)[C@H]3COC(=O)[C@H]23)OCO4)cc(OC)c1O [etoposide],ΔΨm,[1]; [8],0.050
same,ROS,reactive oxygen species; [8],−1.736
same,GE-HTS,OXPHOS gene expression; [8],0.725
same,nucOX,nuOXPHOS transcripts; [8],0.355
same,mitoOX,mtOXPHOS transcripts; [8],1.373
same,cyt c,cytochrome c; [8],−0.491
same,Viability,C2C12 myotubes; [8],−1.541
same,MTT,[2]; [8],−2.352
COc1cc(OC)c2c(c1)OC(c1ccccc1)CC2=O (centres unmarked) [alpinetin methyl ether],ΔΨm (composite Z-score),[1]; Conc 20 μM,−0.286
same,ROS (composite Z-score),reactive oxygen species; Conc 20 μM,0.827
same,GE-HTS (composite Z-score),OXPHOS gene expression; Conc 20 μM,−0.565
same,nucOX (composite Z-score),nuOXPHOS transcripts; Conc 20 μM,−0.437
same,mitoOX (composite Z-score),mtOXPHOS transcripts; Conc 20 μM,−0.717
same,cyt c (composite Z-score),cytochrome c; Conc 20 μM,−0.145
same,Viability (composite Z-score),C2C12 myotubes; Conc 20 μM,0.220
same,MTT (composite Z-score),[2]; Conc 20 μM,−0.694
(−)-asarinin,ΔΨm,[1]; [8],−0.439
same,ROS,reactive oxygen species; [8],−0.229
same,GE-HTS,OXPHOS gene expression; [8],−1.167
same,nucOX,nuOXPHOS transcripts; [8],−0.726
same,mitoOX,mtOXPHOS transcripts; [8],−1.858
same,cyt c,cytochrome c; [8],0.607
same,Viability,C2C12 myotubes; [8],−0.632
same,MTT,[2]; [8],−0.505
CCCN(CCC)C(=O)C(CCC(=O)O)NC(=O)c1ccccc1 (centres unmarked) [proglumide],ΔΨm,[1]; [9],−0.910
same,ROS,reactive oxygen species; [9],2.083
same,GE-HTS,OXPHOS gene expression; [9],−0.541
same,nucOX,nuOXPHOS transcripts; [9],−0.394
same,mitoOX,mtOXPHOS transcripts; [9],−0.730
same,cyt c,cytochrome c,−0.001
same,cyt c,cytochrome c; [9],−0.033
same,Viability,C2C12 myotubes; [9],−0.750
same,MTT,[2]; [9],−1.254
C=C(C)[C@@H]1CC[C@]2(C(=O)O)CC[C@]3(C)[C@H](CC[C@@H]4[C@@]5(C)CC[C@H](O)C(C)(C)[C@@H]5CC[C@]43C)[C@@H]12 [betulinic acid],ΔΨm,[1]; [8],−1.220
same,ROS,reactive oxygen species; [8],0.202
same,GE-HTS,OXPHOS gene expression; [8],0.145
same,nucOX,nuOXPHOS transcripts; [8],0.069
same,mitoOX,mtOXPHOS transcripts; [8],0.259
same,cyt c,cytochrome c; [8],0.481
same,Viability,C2C12 myotubes; [8],0.850
same,MTT,[2]; [8],−2.381
NC(=O)N/N=C/c1ccc([N+](=O)[O-])o1 [nitrofurazone],ΔΨm,[1]; [8],−0.185
same,ROS,reactive oxygen species; [8],2.173
same,GE-HTS,OXPHOS gene expression; [8],−0.199
same,nucOX,nuOXPHOS transcripts; [8],0.038
same,mitoOX,mtOXPHOS transcripts; [8],−0.643
same,cyt c,cytochrome c; [8],0.785
same,Viability,C2C12 myotubes; [8],0.544
same,MTT,[2]; [8],−0.617
CC(=O)[C@@]1(O)CC[C@H]2[C@@H]3C[C@H](C)C4=CC(=O)C=C[C@]4(C)[C@@]3(F)[C@@H](O)C[C@@]21C [fluorometholone],ΔΨm,[1]; [10],−0.299
same,ROS,reactive oxygen species; [10],2.141
same,GE-HTS,OXPHOS gene expression; [10],0.446
same,nucOX,nuOXPHOS transcripts; [10],0.038
same,mitoOX,mtOXPHOS transcripts; [10],1.187
same,cyt c,cytochrome c; [10],−0.324
same,Viability,C2C12 myotubes; [10],−0.965
same,MTT,[2]; [10],−1.306
COC1=C(OC)C(=O)C(C/C=C(\C)CC/C=C(\C)CC/C=C(\C)CC/C=C(\C)CC/C=C(\C)CC/C=C(\C)CC/C=C(\C)CC/C=C(\C)CC/C=C(\C)CCC=C(C)C)=C(C)C1=O [coenzyme Q10],ΔΨm (composite Z-score),[1]; Conc 20 μM,0.920
same,ROS (composite Z-score),reactive oxygen species; Conc 20 μM,1.179
same,GE-HTS (composite Z-score),OXPHOS gene expression; Conc 20 μM,0.366
same,nucOX (composite Z-score),nuOXPHOS transcripts; Conc 20 μM,0.391
same,mitoOX (composite Z-score),mtOXPHOS transcripts; Conc 20 μM,0.226
same,cyt c (composite Z-score),cytochrome c; Conc 20 μM,0.636
same,Viability (composite Z-score),C2C12 myotubes; Conc 20 μM,0.166
same,MTT (composite Z-score),[2]; Conc 20 μM,−1.758
"CC(=O)O[C@@H]1C[C@H]2C(C)(C)CCC(=O)[C@]2(C)[C@H]2CC[C@@]3(C)[C@H](c4ccoc4)OC(=O)[C@H]4O[C@]43[C@@]21C [2,3-dihydroisogedunin]",ΔΨm (composite Z-score),[1]; Conc 20 μM,0.221
same,ROS (composite Z-score),reactive oxygen species; Conc 20 μM,0.780
same,GE-HTS (composite Z-score),OXPHOS gene expression; Conc 20 μM,−0.471
same,nucOX (composite Z-score),nuOXPHOS transcripts; Conc 20 μM,−0.444
same,mitoOX (composite Z-score),mtOXPHOS transcripts; Conc 20 μM,−0.449
same,cyt c (composite Z-score),cytochrome c; Conc 20 μM,0.184
same,Viability (composite Z-score),C2C12 myotubes; Conc 20 μM,0.804
same,MTT (composite Z-score),[2]; Conc 20 μM,−1.287
CO/N=C(\C(=O)N[C@@H]1C(=O)N2C(C(=O)O)=C(COC(N)=O)CS[C@H]12)c1ccco1 [cefuroxime],ΔΨm,[1]; [8],−0.358
same,ROS,reactive oxygen species; [8],0.366
same,GE-HTS,OXPHOS gene expression; [8],0.816
same,nucOX,nuOXPHOS transcripts; [8],0.790
same,mitoOX,mtOXPHOS transcripts; [8],0.699
same,cyt c,cytochrome c; [8],−0.495
same,Viability,C2C12 myotubes; [8],−0.846
same,MTT,[2]; [8],−0.536
CC1CCC23CCC4(C)C5(C)CCC6C(C)(C)C(=O)CCC6(C)C5CCC4(OC2=O)C3C1C (centres unmarked) [3-oxoursan (28-13)olide],ΔΨm,[1]; [3],−0.332
same,ROS,reactive oxygen species; [3],1.010
same,GE-HTS,OXPHOS gene expression; [3],−1.322
same,nucOX,nuOXPHOS transcripts; [3],−1.228
same,mitoOX,mtOXPHOS transcripts; [3],−1.205
same,cyt c,cytochrome c; [3],0.991
same,Viability,C2C12 myotubes; [3],0.638
same,MTT,[2]; [3],−1.871
